Experimental data taken from paper PMC8036603, “Small Molecule Inhibitors of White Spot Syndrome Virus: Promise in Shrimp Seedling Culture” (International Journal of Molecular Sciences, 2021).
Values joined by “and” are separate entries in the source; they are usually repeats but may differ in a detail not shown here. Equal values may be shown once.

Assays:
[1] = tested on: white spot syndrome virus (WSSV); assay: Anti-WSSV activity in shrimp larvae, co-incubation, copy number of viral genome by RT-qPCR; format: in vivo, Litopenaeus vannamei; details: for copy number of the viral genome in sick or dead shrimp homogenates: 24, 48 and 72 hpi, up to 10 mg/L; for inhibitory efficiency on WSSV replication: six-point dose-response, viral genome copy number in larvae
[2] = tested on: white spot syndrome virus (WSSV); assay: Stability assay in aquacultural water (residual anti-WSSV activity); design: species or system Litopenaeus vannamei; details: 28 °C, nonlinear regression best-fit
Description: Aquaculture water was obtained from culture ponds of the Zhejiang Mariculture Research Institute Qingjiang Station. C2/C7, with a final concentration of 10 mg/L, was added to aquacultural water samples in the presence of natural light for up to 4 days, at 28 °C, and finally preincubated with WSSV (final viral titer of 1.6 × 10^5 copies/µL) to infect shrimp larvae, followed by quantification of the copy number of the viral genome at 72 hpi, and the survival rate of the shrimp was evaluated.

[3] = Solubility / precipitation in aquacultural water; format: physicochemical; details: for lowest precipitation concentration / lowest precipitation concentration (bracketed value in LC50 48 h column) / lowest precipitation concentration (bracketed value in LC50 72 h column): test range 0.4~100 mg/L, aquacultural water, LC50 NONE; for solubility in aquacultural water: tested concentration 16 mg/L, 28 °C
Description: Prior to evaluation of the anti-WSSV activity of coumarins, the safety doses for larvae needed to be determined. […] In contrast, the electron-withdrawing group was more toxic than the electron-donating group, with the LC50 of A5‒A8 being <5 mg/L at 72 h. […] Based on preliminary analysis of the structure-activity relationship (SAR) of similar spatial structures with different substituents of electron-donating and electron-withdrawing groups to coumarins A1, B1, and C1, we considered that […] of compounds; this provides a basis for further research.
All conventional reagents and solvents are purchased directly from commercial companies and no further purification is required. Organic solvents were purchased from Sinopharm chemical reagent Co., Ltd. and purified by distillation and moisture was excluded from the glass apparatus using CaCl2 drying tubes. Throughout this study, silica gel H (200–300 mesh; Qingdao Marine Chemical Factory, Qingdao, China) was used for the column chromatography. For thin layer chromatographic (TLC) plates, Silica gel (GF254) (Qingdao Marine Chemical Factory, Qingdao, China) were used for thin layer chromatographic (TLC) analysis, and all of the spots and bands were detected by UV irradiation (254, 365 nm). The intermediates and products were characterized by electrospray ionization mass spectrometry (TripleTOF5600þ; AB SCIEX Pte. Ltd., Boston, MA, USA), ^1H NMR and ^13C NMR (Bruker AM500 spectrometer; Bruker Corporation, Berne, Switzerland). The derivatives were dissolved in 100% dimethyl sulfoxide (DMSO; Beyotime Biotechnology, Haimen, China), stored at 4 °C prior to antiviral evaluation, and used within 6 months. For solubility, the stock solutions, at a concentration of 50 mg/mL, were sonicated for approximately 10 min to ensure that the derivatives were fully dissolved and mixed.

[4] = tested on: white spot syndrome virus (WSSV); assay: Preincubation of WSSV with compound before infection of larvae; format: in vivo, Litopenaeus vannamei; details: virus pre-incubated with compound 1–4 h; for increase of survival rate: 10 mg/L
Description: For preincubation with immersion, WSSV was preincubated with C2/C7 to a final viral titer of 1.6 × 10^5 copies/µL and up to 10 mg/L coumarin compound or vehicle control in the challenge wells. After 1, 2, and 4 h of incubation, shrimp larvae were added to the challenge well until 72-h post-infection. The surviving shrimp were humanely euthanized with tricaine methane sulfonate (MS-222) at a final concentration of 150 mg/L, followed by quantification of the copy number of the viral genome.

[5] = tested on: white spot syndrome virus (WSSV); assay: Pre-exposure (pre-treatment) of larvae to compound before WSSV infection; format: in vivo, Litopenaeus vannamei; details: for change in copy number of the viral genome, pre-exposure vs virus alone: larvae exposed up to 8 h prior to WSSV infection, 10 mg/L; for time to which shrimp death was delayed: pre-exposure 10 mg/L, untreated 100% mortality by 72 h
Description: For pre-treatment, C2/C7 (final concentration of 10 mg/L) was applied to shrimp larvae for 1, 4, and 8 h, followed by addition of WSSV (while the coumarin compounds were simultaneously removed) at a final viral titer of 1.6 × 10^5 copies/µL. The surviving shrimps were euthanized with MS-222 and frozen at −80 °C until being processed. The copy number of viral genome in samples was quantified by RT-qPCR.

[6] = tested on: white spot syndrome virus (WSSV); assay: Survival of WSSV-infected shrimp larvae on co-incubation with compound; format: in vivo, Litopenaeus vannamei; details: for enhancement of survival rate in WSSV-infected larvae: 72 hpi, 10 mg/L, co-incubation; for decrease of mortality of WSSV-infected larvae after exposure: abstract statement
Description: For in vivo study of co-incubation, C2 and C7 was separately incubated with WSSV and shrimp larvae.
Figure 2 C2 and C7 inhibited WSSV infection in shrimp larvae. (A) Schematic diagram describing the workflow. (B) The survival rate of WSSV-infected shrimp was analyzed in 0.31 to 10 mg/L treatments at 72 hpi. (C) Survivorship curve of WSSV-infected shrimp was analyzed in C2 and C7 up to 10 mg/L treatment. (D) Quantification on copy number of viral genome was tested by exposure to C2 and C7 up to 10 mg/L treatment at 24, 48, and 72 hpi, respectively. The virus-infected shrimps were immersed with the compounds and DMSO at the dose 0.2‰ (v/v). Each value is represented as the mean ± SD normalized to values for no treatment. The p value for each study was determined by Student’s t tests. ** p < 0.01.
[…], shrimp larvae were randomly selected, separated into six-well plates containing ultraviolet light-sterilized aquacultural water, and infected with WSSV (final viral titer of 1.6 × 10^5 copies/µL) in the presence of coumarins for 72 h. Mock negative controls (1% DMSO) were also used. The homogenate of each well containing sick or dead shrimp was subjected to low-speed centrifugation (2000× g). The viral load was quantified by determining the copy number of the viral genome in samples by quantitative reverse transcription polymerase chain reaction (RT-qPCR) assay, as previously described.

[7] = tested on: white spot syndrome virus (WSSV); assay: Horizontal transmission of WSSV to naive recipient larvae; format: in vivo, Litopenaeus vannamei; details: 10 mg/L, each time point
Description: Shrimp larvae were infected with 1.6 × 10^5 copies/µL WSSV or aquacultural water only. At 24 hpi, a total of the 12 donor shrimps were placed into each challenge beaker (100 mL of water and a continuous air supply), and C2 (10 mg/L final concentration) or DMSO (0.2‰ final concentration) was added to each challenge beaker. Every 24 h, five donor and fifteen recipient shrimp were netted into a new challenge beaker with fresh water and a fresh dose of C2/C7 (10 mg/L) or DMSO (0.2‰). After 72 h of cohabitation, the surviving recipient shrimps were euthanized with MS-222 and frozen at −80 °C. In order to distinguish the donor and recipient samples in this test, we chose the larger shrimp as the recipients (total length of 1.1 ± 0.2 cm, body weight of 6.9 ± 0.5 mg, mean values ± SD) and placed a sieve in the challenge beaker to separate the donor and recipient shrimps.

[8] = WSSV-infected larvae, copy number of viral genome, 72 h, 95% CI in brackets

Molecule	copy number of the viral genome in sick or dead shrimp homogenates [1]	EC50 (mg/L; 95% CI), median effective concentration [1, 8]	EC50 ([1]; Whispovirus xiabaidian, 72 h, read-out: EC50 (mg/L; 95% CI), median effective concentration, WSSV-infected larvae, copy number of viral genome, 72 h, 95% CI in brackets) [mg/L]	inhibitory efficiency on WSSV replication [1]	half-life at 10 mg/L ([2]; buffer, read-out: calculated inhibitory half-life in water samples (converted)) [h]	lowest precipitation concentration [3]	lowest precipitation concentration (bracketed value in LC50 48 h column) [3]	lowest precipitation concentration (bracketed value in LC50 72 h column) [3]	solubility in aquacultural water [3]	effect on WSSV infection (viral genome copy number) [4]	increase of survival rate [4]	change in copy number of the viral genome, pre-exposure vs virus alone [5]	time to which shrimp death was delayed [5] [hpi]	enhancement of survival rate in WSSV-infected larvae [6]	decrease of mortality of WSSV-infected larvae after exposure [6]	WSSV replication in naïve recipient larvae [7]	MAR (%), maximum antiviral response ([1]; WSSV-infected larvae, viral genome copy number normalized to no treatment, low value = strong inhibition, mean ± SD) [%]	calculated inhibitory half-life in water samples ([2]; 10 mg/L) [h]
Cc1ccc(C2C(C#N)=C(N)Oc3c2c(=O)oc2ccccc32)cc1 (centres unmarked) [C2, 2-amino-5-oxo-4-(p-tolyl)-4H,5H-pyrano[3,2-c]chromene-3-carbonitrile]	down-regulated	05.993 (5.327~6.851) mg/L	< 10	exceeded 90%	55.2	NONE (16) mg/L	NONE (16) mg/L	NONE (16) mg/L	insoluble	suppressed WSSV infection	up to 40%	slight changes	96	more than 65%	more than 60%	significantly downregulated	–	–
2-amino-4-(4-chlorophenyl)-5-oxo-4H,5H-pyrano[3,2-c]chromene-3-carbonitrile [C7]	down-regulated	< 10 mg/L and 05.727 (5.069~6.577) mg/L	–	exceeded 90%	–	NONE (16) mg/L	NONE (16) mg/L	NONE (16) mg/L	insoluble	suppressed WSSV infection	up to 40%	slight changes	96	more than 65%	more than 60%	significantly downregulated	03.154 ± 1.157	57.6
